In publication PMC4937837 (Journal of Medicinal Chemistry, 2015):

Settings: mouse liver microsomes, NADPH, 1 μM compound, 1 h incubation

in vitro rate constant (k): −0.017
SMILES: O=C(NCCCCN1CCN(c2cccc3ccccc23)CC1)c1cnc2ccccc2c1 [Compound 32, N-(4-(4-(Naphthalen-1-yl)piperazin-1-yl)butyl)quinoline-3-carboxamide]
